Data set [1] deals with T1, STING (Homo sapiens, UniProt Q86WV6, G230A/H232R/R293Q/R71H).
T1 construct: Human monocyte cell THP-1 were purchased from ATCC (Catalog No. TIB-202); host or cells: THP-1 human monocyte cells
The experiment in a line: qPCR analysis of mRNA levels of cytokine gene expression (IFNB, ISG15, CXCL10) in THP-1 cells. The format is cell-based. To be noted: 10 μM compound, 6 h, vs DMSO. As for the experimental part:
qPCR analysis of mRNA levels of cytokine gene expression in THP-1 cell Human monocyte cell THP-1 were purchased from ATCC (Catalog No. TIB-202). The complete growth medium was made with ATCC-formulated RPMI-1640 Medium (Catalog No. 30-2001) and supplemented with 2-mercaptoethanol to a final concentration of 0.05 mM, and fetal bovine serum (FBS) to a final concentration of 10%.
To evaluate the agonistic effects of chemicals on STING, the gene expression of IFNB, ISG15 and CXCL10 in human monocyte THP-1 cells was measured by real time qPCR. After the treatment of 10 μM Compounds for 6 hrs, cells were respectively lysed by TRIzol reagents (from Invitrogen). Total RNA was extracted according to the manufacturer's instruction. mRNA concentration was measured via 3rd generation NanoDrop machine. 1 μg of mRNA was used for the reverse transcription reaction with random primer, dNTP mix, RNase inhibitor and M-MuLV Reverse Transcriptase. SYBR green supermix and hot start DNA polymerase were used in qPCR with TBP gene as an internal control. Gene-specific primers were purchase from Integrated DNA Technologies.

For data set [2], the system named is CT-26 mouse colon adenocarcinoma. The experiment in a line: Antitumor efficacy in s.c. CT-26 mouse colon adenocarcinoma model. The format is in vivo, BALB/c mice. As for the experimental part:
Evaluation of Antitumor Efficacy in CT-26 Mouse Model
Six- to eight-week-old male BALB/c mice of 18-20 g were purchased from Taconic Biosciences (La Jolla, CA). Mouse colon carcinoma CT-26 (from ATCC) cells were maintained in RPMI-1640 medium supplemented with 10% fetal bovine serum (FBS), 100 U/ml penicillin and 100 μg/ml streptomycin, and incubated at 37° C. and 5% CO2. The cells growing in an exponential growth phase were harvested and counted for tumor inoculation. Each mouse was inoculated subcutaneously at the left and the right flank with 5×10^4 CT-26 tumor cells in 0.1 ml of serum-free medium for tumor development.
Mice were randomized into study groups with 8 mice/group when average tumor volume was ˜70 mm^3. […] Tumor size and body weight were measured twice per week throughout the study. Tumor volume was calculated by applying length and width caliper measurements to the following formula: TV=0.5*L*W^2. Percent treated/control (T/C) value was calculated as 100×ΔT/ΔC (when ΔT>0) or 100×ΔT/Tsd (when ΔT<0) where ΔT and ΔC are the changes in the mean tumor volumes between the indicated day and the first day of measurement for the treatment and control groups, respectively. […] Statistical analyses of the differences in tumor volume among the groups were evaluated using a one-way ANOVA. […]

Data set [3] is described as follows: Tolerability and body weight in CT-26 mouse model. The format is in vivo. To be noted: 3×1.5 mg/kg IP, BALB/c mice bearing CT-26. How it is done: Mice were randomized into study groups with 8 mice/group when average tumor volume was ˜70 mm^3. On day 1, 4 and 8 mice were dosed with vehicle or 1.5 mg/kg Cpd 4 (Example 4) in 5% DMSO, 45% PEG400, and […] formulation by intraperitoneal injection. Tumor size and body weight were measured twice per week throughout the study. Tumor volume was calculated by applying length and width caliper measurements to the following formula: TV=0.5*L*W^2. Percent treated/control (T/C) value was calculated as 100×ΔT/ΔC (when ΔT>0) or 100×ΔT/Tsd (when ΔT<0) where ΔT and ΔC are the changes in the mean tumor volumes between the indicated day and the first day of measurement for the treatment and control groups, respectively. Tsd is the first day mean tumor volume of the treated group. Statistical analyses of the differences in tumor volume among the groups were evaluated using a one-way ANOVA. All data were analyzed using GraphPad Prism 8 (GraphPad Software, San Diego, CA). p<0.05 was considered to be statistically significant.

Data set [4] has as its target T1, STING. The experiment in a line: Western blot analysis of activated STING and its downstream protein phosphorylation in THP-1 cells. The format is cell-based. To be noted: 10 μM compound, 3 h, vs DMSO. As for the experimental part:
The Western blot analysis of activated STING and its downstream protein phosphorylation in human monocyte THP-1 cells
Human monocyte cell THP-1 were purchased from ATCC (Catalog No. TIB-202). The complete growth medium was made with ATCC-formulated RPMI-1640 Medium (Catalog No. 30-2001) and supplemented with 2-mercaptoethanol to a final concentration of 0.05 mM, and fetal bovine serum (FBS) to a final concentration of 10%.
After the THP-1 cells were treated with the 10 μM invented compounds for 3 hours, the cells were lysed by RIPA buffer, followed by washing with PBS. The total protein concentration was measured by BCA protein assay. The 10 μg protein sample was loaded after mixing with SDS-PAGE protein loading buffer, separated on SDS-PAGE and transferred to a PVDF membrane using the semi-dry transfer apparatus. After blocking with 5% BSA for 1 hr, the membrane was incubated with 1st antibodies overnight at 4° C., followed by incubation with HRP-conjugated 2nd antibodies (Catalog No. WBULS0100 from Millipore) for another 1 hr at room temperature. Lastly, the immunocomplexes were detected via the Bio-Rad ChemiDoc Touch Imaging System. Antibodies for western blotting were purchased from Cell Signaling Technology, catalog numbers 19781 (p-STING Ser366), 13647 (STING), 5483 (p-TBK1 Ser 172), 3504 (TBK1), 4947 (p-IRF3 Ser396), 4302 (IRF3) and 7074 (HRP-linked anti-rabbit IgG).

T1 sequence (Q86WV6 whole entry R71H/G230A/H232R/R293Q): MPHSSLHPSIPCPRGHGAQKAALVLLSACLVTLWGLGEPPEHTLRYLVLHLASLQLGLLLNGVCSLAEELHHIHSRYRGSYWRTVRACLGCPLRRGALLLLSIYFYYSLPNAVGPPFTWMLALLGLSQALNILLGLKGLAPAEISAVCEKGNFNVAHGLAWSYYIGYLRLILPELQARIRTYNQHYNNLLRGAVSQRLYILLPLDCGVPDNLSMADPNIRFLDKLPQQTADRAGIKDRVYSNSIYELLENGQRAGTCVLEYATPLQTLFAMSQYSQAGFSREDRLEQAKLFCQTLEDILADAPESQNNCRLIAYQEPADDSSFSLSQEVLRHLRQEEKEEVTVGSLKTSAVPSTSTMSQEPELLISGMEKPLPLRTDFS

For the compound `CCn1nc(C)cc1C(=O)Nc1nc2cc(C(N)=O)cnc2n1C/C=C/Cn1c(NC(=O)c2cc(C)nn2CC)nc2cc(C(N)=O)cc(OCCCN3CCOCC3)c21` [Example 4, (E)-3-(4-(5-carbamoyl-2-(1-ethyl-3-methyl-1H-pyrazole-5-carboxamido)-7-(3-morpholinopropoxy)-1H-benzo[d]imidazol-1-yl)but-2-en-1-yl)-2-(l-ethyl-3-methyl-1H-pyrazole-5-carboxamido)-3H-imidazo[4,5-b]pyridine-6-carboxamide], at STING [1], the “mRNA level of CXCL10” value is listed as “significantly upregulated”, the “mRNA level of IFNB” value is “significantly upregulated” and the “mRNA level of ISG15” value was “significantly upregulated”. Also, the “tumor growth rate of treated/control (T/C)” value in data set [2] (3×1.5 mg/kg IP (day 1, 4, 8), day 12, s.c. CT-26 in BALB/c mice) came out at 19%. Besides, the “antitumor efficacy (tumor volume)” value in data set [2] (3×1.5 mg/kg IP, s.c. CT-26 in BALB/c mice) is “highly potent”. Moreover, in data set [3], the body weight entry is recorded as “no bodyweight loss” and the tolerability entry is recorded as “well-tolerated”. Further, at STING [4], the p-IRF3 level entry was “higher levels”, the p-TBK1 level result is listed as “higher levels” and the “phosphorylated STING (p-STING) level” value is on record as “higher levels”.

As to `CCn1nc(C)cc1C(=O)/N=c1\n(C)c2cc(C(N)=O)cnc2n1C/C=C/Cn1/c(=N/C(=O)c2cc(C)nn2CC)n(C)c2cc(C(N)=O)cc(OCCCN3CCOCC3)c21` [Example 6, (E)-3-((E)-4-((E)-5-carbamoyl-2-((1-ethyl-3-methyl-1H-pyrazole-5-carbonyl)imino)-3-methyl-7-(3-morpholinopropoxy)-2,3-dihydro-1H-benzo[d]imidazol-1-yl)but-2-en-1-yl)-2-((1-ethyl-3-methyl-1H-pyrazole-5-carbonyl)imino)-1-methyl-2,3-dihydro-1H-imidazo[4,5-b]pyridine-6-carboxamide], at STING [1], the “mRNA level of CXCL10” value is reported as “significantly upregulated”, the “mRNA level of IFNB” value is recorded as “significantly upregulated” and the “mRNA level of ISG15” value is given as “significantly upregulated”.

As to `CCn1nc(C)cc1C(=O)Nc1nc2cc(C(N)=O)cnc2n1C/C=C/Cn1c(NC(=O)c2cc(C)nn2CC)nc2cc(C(N)=O)cc(OCCN3CCOCC3)c21` [Example 10, (E)-3-(4-(5-carbamoyl-2-(1-ethyl-3-methyl-1H-pyrazole-5-carboxamido)-7-(2-morpholinoethoxy)-1H-benzo[d]imidazol-1-yl)but-2-en-1-yl)-2-(1-ethyl-3-methyl-1H-pyrazole-5-carboxamido)-3H-imidazo[4,5-b]pyridine-6-carboxamide], on STING [1], the “mRNA level of CXCL10” value was “significantly upregulated”, the “mRNA level of IFNB” value was “significantly upregulated” and the “mRNA level of ISG15” value was “significantly upregulated”. Besides, at STING [4], the p-IRF3 level result is “higher levels”, the p-TBK1 level entry is recorded as “higher levels” and the “phosphorylated STING (p-STING) level” value is given as “higher levels”.

Consider `CCn1nc(C)cc1C(=O)Nc1nc2cc(C(N)=O)cnc2n1C/C=C/Cn1c(NC(=O)c2cc(C)nn2CC)nc2cc(C(N)=O)cc(OCCCN3CCNCC3)c21` [Example 8, (E)-3-(4-(5-carbamoyl-2-(1-ethyl-3-methyl-1H-pyrazole-5-carboxamido)-7-(3-(piperazin-1-yl)propoxy)-1H-benzo[d]imidazol-1-yl)but-2-en-1-yl)-2-(1-ethyl-3-methyl-1H-pyrazole-5-carboxamido)-3H-imidazo[4,5-b]pyridine-6-carboxamide], for which, on STING [1], the “mRNA level of CXCL10” value is “significantly upregulated”, the “mRNA level of IFNB” value is on record as “significantly upregulated” and the “mRNA level of ISG15” value was “significantly upregulated”. In addition, on STING [4], the p-IRF3 level result was “higher levels”, the p-TBK1 level entry is reported as “higher levels” and the “phosphorylated STING (p-STING) level” value is given as “higher levels”.

The record behind these values is patent US20240132493A1, “IMIDAZOPYRIDINE DERIVATIVES AS STING AGONISTS” (Fulgent Genetics, Inc., priority 2021, published 2024).
